# Key:
# [1] = system: MDA-MB231; test: SRB antiproliferative assay, MDA-MB231; format: cell-based, human; conditions: Homo sapiens, MDA-MB-231, 48 h, SRB, 48 h incubation, MDA-MB231 triple-negative breast cancer cells; read-out: GI50 MDA-MB231
# Protocol: (§1) The human breast cancer cell lines MDA-MB468, MDA-MB231 and MCF-7 were purchased from ATCC and maintained in RPMI 1640 medium supplemented with 10% fetal bovine serum (Hyclone, Logan UT) and 2 mM L-glutamine. MCF10A and 184B5 immortalised breast cells were purchased from ATCC and maintained in mammary epithelial basal medium supplemented with an MEGM mammary epithelial singlequot kit (Cambrex). Cells were grown at 37 °C with 5% CO2, 95% air under the humidified conditions. Cell line authentication was carried out by Genetica DNA Laboratories (Burlington, NC) using a short tandem repeat profiling method (March 2015; July 2015; September 2016).
# (§2) Cell cytotoxic effects were determined by a SRB-based protocol[2]^,[25].
# (§3) The newly synthesised 4-piperazinylquinoline compounds (5–30) were evaluated for their antiproliferative effects using three breast cancer cell lines, for which the compounds were diluted to achieve seven different concentrations ranging from […]. Followed by 48 h incubation with the compound, cells were treated with sulforhodamine B (SRB) to measure their growth/viability (% of the untreated control) by spectrophotometer. The total cellular macromolecules levels known to accurately reflect by UV reading of SRB staining. […] The reference compounds CQ and cisplatin were included for the comparison.
# [2] = system: MDA-MB468; test: SRB antiproliferative assay, MDA-MB468; format: cell-based, human; conditions: Homo sapiens, MDA-MB-468, 48 h, SRB, 48 h incubation, MDA-MB468 breast cancer cells; read-out: GI50 MDA-MB468
# Protocol: as §1, §2, §3
# [3] = system: MCF7; test: SRB antiproliferative assay, MCF7; format: cell-based, human; conditions: Homo sapiens; SRB, 48 h incubation, MCF7 breast cancer cells; read-out: GI50 MCF7
# Protocol: as §1, §2, §3
# [4] = system: 184B5; test: SRB antiproliferative assay, 184B5 non-cancer breast cells; format: cell-based, human; conditions: Homo sapiens; SRB, 48 h incubation, 184B5 non-cancer immortalised breast cells; read-out: GI50 184B5
# Protocol: as §1, §2, §3
# (§4) We further assessed their antiproliferative effects on two non-cancer immortalised cell lines (184B5 and MCF10A). […] The antiproliferative effects of compound 23 on cancer cells are thus 7-fold (MDA-MB468 vs MCF10A) to 11-fold (MDA-MB231 vs 184B5) higher than matching non-cancer breast cells, which may indicate that compound 23 could potentially be safer than other compounds. Therefore, we examined it further to gain insights into its molecular mechanism of action.
# [5] = system: MCF10A; test: SRB antiproliferative assay, MCF10A non-cancer breast cells; format: cell-based, human; conditions: Homo sapiens, MCF-10A; SRB, 48 h incubation, MCF10A non-cancer immortalised breast cells; read-out: GI50 MCF10A
# Protocol: as §1, §2, §3, §4
# [6] = system: breast cancer and non-cancer breast cell lines; test: SRB antiproliferative comparison of breast cancer and non-cancer breast cell lines; format: cell-based, human; conditions: for antigrowth effect against cancer versus non-cancer cells (in words): three breast cancer lines vs 184B5 and MCF10A
# Protocol: as §1, §2, §3, §4
SMILES,GI50 [1],GI50 [2],GI50 [3],GI50 [4],GI50 [5],antigrowth effect against cancer versus non-cancer cells (in words) [6],melting point,"higher activity than the reference compounds cisplatin and CQ ([6]; breast cancer cell lines, GI50 comparison)"
"FC(F)(F)c1ccc(NC(=S)N2CCN(c3ccnc4cc(Cl)ccc34)CC2)cc1 [Compound 19, 4-(7-Chloro-quinolin-4-yl)-piperazine-1-carbothioic acid (4-trifluoromethyl-phenyl)-amide]",14.9 ± 1.1 µM,7.8 ± 0.8 µM,4.9 ± 0.4 µM,3.7 ± 0.1 µM,3.1 ± 0.1 µM,higher activity against non-cancer cells than cancer cells,112 to 113 °C,–
"S=C(Nc1ccc(Cl)cc1)N1CCN(c2ccnc3cc(Cl)ccc23)CC1 [Compound 20, 4-(7-Chloro-quinolin-4-yl)-piperazine-1-carbothioic acid (4-chloro-phenyl)-amide]",22.6 ± 1.4 µM,33.1 ± 1.5 µM,20.4 ± 0.9 µM,14.4 ± 0.6 µM,8.8 ± 0.7 µM,higher activity against non-cancer cells than cancer cells,145 to 146 °C,–
"S=C(Nc1c(Cl)cc(Cl)cc1Cl)N1CCN(c2ccnc3cc(Cl)ccc23)CC1 [Compound 21, 4-(7-Chloro-quinolin-4-yl)-piperazine-1-carbothioic acid (2,4,6-trichloro-phenyl)-amide]",7.7 ± 0.5 µM,5.1 ± 0.2 µM,4 ± 0.3 µM,4.7 ± 0.3 µM,6.8 ± 0.6 µM,comparable against cancer and non-cancer cells,132 to 133 °C,–
"S=C(Nc1cccc2ccccc12)N1CCN(c2ccnc3cc(Cl)ccc23)CC1 [Compound 22, 4-(7-Chloro-quinolin-4-yl)-piperazine-1-carbothioic acid naphthalen-1-ylamide]",19.8 ± 1.1 µM,10 ± 0.9 µM,30.1 ± 1.2 µM,17.8 ± 0.6 µM,13.3 ± 1 µM,comparable against cancer and non-cancer cells,107 to 108 °C,–
"FC(F)(F)c1ccc2c(N3CCN(C(=S)Nc4ccccc4)CC3)ccnc2c1 [Compound 24, 4-(7-Trifluoromethyl-quinolin-4-yl)-piperazine-1-carbothioic acid phenylamide]",13.8 ± 0.8 µM,14.1 ± 0.9 µM,7.5 ± 0.6 µM,24.4 ± 2 µM,34.2 ± 1.3 µM,much stronger activities against cancer than non-cancer cells,187 to 188 °C,–
"Cc1cccc(C)c1NC(=S)N1CCN(c2ccnc3cc(C(F)(F)F)ccc23)CC1 [Compound 25, 4-(7-Trifluoromethyl-quinolin-4-yl)-piperazine-1-carbothioic acid (2,6-dimethyl-phenyl)-amide]",22.2 ± 1.7 µM,13.3 ± 0.3 µM,5.2 ± 0.5 µM,21.4 ± 1.3 µM,14.1 ± 1.5 µM,comparable against cancer and non-cancer cells,105 to 106 °C,–
"FC(F)(F)c1ccc(NC(=S)N2CCN(c3ccnc4cc(C(F)(F)F)ccc34)CC2)cc1 [Compound 26, 4-(7-Trifluoromethyl-quinolin-4-yl)-piperazine-1-carbothioic acid (4-trifluoromethyl-phenyl)-amide]",16.5 ± 1.2 µM,23.4 ± 0.9 µM,3.8 ± 0.3 µM,8.8 ± 0.6 µM,10.7 ± 2 µM,comparable against cancer and non-cancer cells,123 to 124 °C,–
"FC(F)(F)c1ccc2c(N3CCN(C(=S)Nc4ccc(Cl)cc4)CC3)ccnc2c1 [Compound 27, 4-(7-Trifluoromethyl-quinolin-4-yl)-piperazine-1-carbothioic acid (4-chloro-phenyl)-amide]",18.7 ± 2.3 µM,11.8 ± 1.6 µM,7 ± 0.7 µM,7.9 ± 0.6 µM,9.2 ± 1 µM,comparable against cancer and non-cancer cells,165 to 166 °C,–
"FC(F)(F)c1ccc2c(N3CCN(C(=S)Nc4c(Cl)cc(Cl)cc4Cl)CC3)ccnc2c1 [Compound 28, 4-(7-Trifluoromethyl-quinolin-4-yl)-piperazine-1-carbothioic acid (2,4,6-trichloro-phenyl)-amide]",12.2 ± 0.9 µM,23.4 ± 1.9 µM,11.8 ± 1 µM,5.5 ± 0.5 µM,8.2 ± 0.7 µM,higher activity against non-cancer cells than cancer cells,112 to 114 °C,–
"FC(F)(F)c1ccc2c(N3CCN(C(=S)Nc4cccc5ccccc45)CC3)ccnc2c1 [Compound 29, 4-(7-Trifluoromethyl-quinolin-4-yl)-piperazine-1-carbothioic acid naphthalen-1-ylamide]",9.8 ± 1 µM,9.4 ± 0.8 µM,6.4 ± 0.7 µM,50.6 ± 3.8 µM,69.4 ± 3.7 µM,much stronger activities against cancer than non-cancer cells,137 to 138 °C,4-8 fold
"FC(F)(F)c1ccc2c(N3CCN(C(=S)NCCN4CCOCC4)CC3)ccnc2c1 [Compound 30, 4-(7-Trifluoromethyl-quinolin-4-yl)-piperazine-1-carbothioic acid (2-morpholin-4-yl-ethyl)-amide]",11.8 ± 0.9 µM,14.2 ± 0.6 µM,6.2 ± 0.7 µM,17.4 ± 1 µM,18.9 ± 1.3 µM,much stronger activities against cancer than non-cancer cells,134 to 135 °C,–

# — paper PMC6366420, “Design and synthesis of 4-piperazinyl quinoline derived urea/thioureas for anti-breast cancer activity by a hybrid pharmacophore approach” (Journal of Enzyme Inhibition and Medicinal Chemistry, 2019)
